Values of other authors, collected in patent US20070043208A1, “Crystal structure of erythrocyte binding domain of EBA-175” (priority 2003, published 2007).

Tested on: P. falciparum
Details: DNA plasmid prime and recombinant protein boost regimen

Substance: RII: 73 kDa erythrocyte-binding domain (616 amino acid fragment) of P. falciparum EBA-175
- monkeys protected from P. falciparum challenge: 3 of 4
